From patent US20070134744A1, “Epothilone resistant cell lines” (priority 2000, published 2007)

Columns and labels:
Type in all cases: cell-based, human
[1] = tested on: 315/sc5.9 cells
Procedure: (§1) Anti-proliferative assays are performed basically as described (Meyer et al., Int. J. Cancer 43:851 (1989)). Briefly, cells are seeded at 1.5×10^3 cells/well into 96-well microtiter plates and allowed to adhere by incubation overnight. Compounds are added in serial dilutions on day 1. The plates are then incubated for an additional 3 days, after which the cells are fixed with 3.3% v/v glutaraldehyde, washed with water and stained with 0.05% w/v methylene blue according to conventional methods. After washing, the dye is eluted with 3% HCl and the optical density measured at 665 nm with a SpectraMax Plus (Molecular Devices, Sunnyvale, Calif.) according to manufacturers instructions. IC50 values are determined by mathematical curve-fitting using the SoftPro2.6.1 program (Molecular Devices, Sunnyvale, Calif.) using the formula (OD treated−OD start)/(OD control−OD start)×100. […] IC50 determinations with the cell line 298/D4/40 are performed in the presence of 40 nM epothilone A.
(§2) Data in Table 4 are gathered according to the following methods: Cells (1×10^3) are seeded in 96-well plates and allowed to adhere for 24 hrs. Compounds are then added as two-fold serial dilutions and incubation continued for an additional 72 hrs. Cell numbers at the beginning and at the end of the experiment are estimated by methylene blue staining of cellular protein mass according to conventional methods. The net mass increase of vehicle-treated cells is set as 100% growth. The IC50 is determined as the drug concentration that leads to half-maximal growth inhibition compared to the control. The resistance factor (RF) for a particular drug is calculated by dividing the IC50 determined on the resistant cell line by that determined on the parental KB-31 cells. Data are presented as average±standard deviation (SD) of three separate experiments, except na=not applicable (n<3). Colchicine-selected KB-8511 cells overexpressing P-glycoprotein served as a reference for the classical multi-drug-resistant phenotype.

[2] = tested on: 298/D4/40 cells; settings: 298/D4/40 (EpoA selected), 72 hrs, in the presence of 40 nM epothilone A
Procedure: as §1, §2

[3] = tested on: 297/C5/0 cells; settings: 297/C5/0 (EpoA selected), 72 hrs, average of three experiments
Procedure: as §1, §2

SMILES: C/C(=C\c1csc(C)n1)[C@@H]1C[C@@H]2O[C@@H]2CCC[C@H](C)[C@H](O)[C@@H](C)C(=O)C(C)(C)[C@@H](O)CC(=O)O1 [Epothilone A, epothilone A]
- RF (resistance factor: IC50 resistant cell line / IC50 parental KB-31) ([1]; 315/sc5.9 (EpoB selected), 72 hrs, average of three experiments): 1.2
- resistance profile in words ([1]; 315/sc5.9 vs parental KB-31): marginal cross-resistance
- RF (resistance factor: IC50 resistant cell line / IC50 parental KB-31) [2]: 71.4
- RF (resistance factor: IC50 resistant cell line / IC50 parental KB-31) [3]: 44.7
